Reference: US20210047304A1, “Bromodomain Inhibitors” (AbbVie Inc., priority 2016, published 2021)
Like-named read-outs stand apart in the source and are kept apart here.

Molecular target: BRD4 (BDI_K57-E168) (Homo sapiens, UniProt O60885)
Assay: TR-FRET bromodomain binding assay, BRD4 BDI

How did the Ki turn out when Cc1cc(F)cc(C)c1Oc1ccc(C(C)(C)O)cc1-c1cn(C)c(=O)cc1O[C@H]1CC[C@H](N2C(=O)N(C)C(C)(C)C2=O)CC1 [Example 142, 3-[trans-4-({5-[2-(4-fluoro-2,6-dimethylphenoxy)-5-(2-hydroxypropan-2-yl)phenyl]-1-methyl-2-oxo-1,2-dihydropyridin-4-yl}oxy)cyclohexyl]-1,5,5-trimethylimidazolidine-2,4-dione] was run?
The Ki was 0.94 µM.

How did the Ki turn out when Cc1cc(F)cc(C)c1Oc1ccc(C(C)(C)O)cc1-c1cn(C)c(=O)cc1O[C@H]1CC[C@H](n2cccnc2=O)CC1 [Example 143, 1-[trans-4-({5-[2-(4-fluoro-2,6-dimethylphenoxy)-5-(2-hydroxypropan-2-yl)phenyl]-1-methyl-2-oxo-1,2-dihydropyridin-4-yl}oxy)cyclohexyl]pyrimidin-2(1H)-one] was run?
The Ki was 5.24 µM.

Cc1cc(F)cc(C)c1Oc1ccc(C(C)(C)O)cc1-c1cn(C)c(=O)cc1O[C@H]1CC[C@H](n2cnccc2=O)CC1 [Example 144, 3-[trans-4-({5-[2-(4-fluoro-2,6-dimethylphenoxy)-5-(2-hydroxypropan-2-yl)phenyl]-1-methyl-2-oxo-1,2-dihydropyridin-4-yl}oxy)cyclohexyl]pyrimidin-4(3H)-one] was tested. Which Ki did it give?
The Ki was over 13 µM.

With Cc1cc(F)cc(C)c1Oc1ccc(C(C)(C)O)cc1-c1cn(C)c(=O)cc1O[C@H]1CC[C@H](N2C(=O)N(C)C3(CC3)C2=O)CC1 [Example 145, 6-[trans-4-({5-[2-(4-fluoro-2,6-dimethylphenoxy)-5-(2-hydroxypropan-2-yl)phenyl]-1-methyl-2-oxo-1,2-dihydropyridin-4-yl}oxy)cyclohexyl]-4-methyl-4,6-diazaspiro[2.4]heptane-5,7-dione] as the compound, how does the Ki read?
The Ki was over 13 µM.

How did the Ki (mean Ki, 12 nM His tagged BRD4 (BDI_K57-E168), 100 nM Alexa647 probe, Ki calculated from IC50, probe Kd and probe concentration) turn out when “methyl [trans-4-({5-[2-(4-fluoro-2,6-dimethylphenoxy)-5-(2-hydroxypropan-2-yl)phenyl]-1-methyl-2-oxo-1,2-dihydropyridin-4-yl}oxy)cyclohexyl]methylcarbamate [Example 21]” was run?
Its Ki is 3.02 µM.
